Data from patent publication US11999805B1, “Peptide inhibitors of CRISPR-Cas9” (priority 2020, dated 2024).
“Also recorded” adds a separate entry of the source. Read-outs that look alike come from different tables or passages of the source. Residues, ends and D or L forms follow the SMILES beside them. No end group written: not given here.

Legend:
[1] = target: T1, SpyCas9 (Streptococcus pyogenes serotype M1, UniProt Q99ZW2); type: biochemical, S. pyogenes; conditions: for IC50: read-out: SpyCas9 IC50, FRET cleavage assay, concentration curves, 0.5 μM Cas9, 50 nM DNA substrate
Description: (§1) To determine whether synthetic peptides would inhibit Cas9 cleavage activity, 200 peptide sequences were selected for chemical synthesis based on the following criteria: (1) peptides enriched after independent panning on RNP immobilized on both the Monomeric Avidin and NeutrAvidin columns, (2) Higher Boman index (>2.3), the computed potential protein-protein interaction for a given amino-acids sequence (3) a predicted instability index below 50. Theses peptides were screened at 200 μM for inhibition of Cas9 cleavage activity using the recently developed HT FRET-based assay using a dual-quencher substrate with low background and high sensitivity. See Seamon K J, Light Y K, Saada E A, Schoeniger J S, Harmon B. 2018. Versatile High-Throughput Fluorescence Assay for Monitoring Cas9 Activity. Analytical Chemistry 90:6913-6921. This assay specifically measures DNA substrate cleavage, and is able to differentiate between cleavage of a single strand of DNA and cleavage of both DNA strands.
(§2) Reactions (10 μL tubes) were set up in Cas9 reaction buffer (20 mM Tris-HCl, pH 7.5, 100 mM NaCl, 5 mM MgCl2, 0.1 mM EDTA) containing 50 nM annealed DNA substrate, 1.5 μM sgRNA, and 500 nM Cas9 in the wells of a black low volume 384-well plate. The reactions were incubated for 1 hour at ambient temperature; then, 10 μL of 8 M Gdn-HCl was added to quench the reaction before the plates were covered with an aluminum seal and incubated at 80° C. for 10 minutes. The fluorescence was read in a Tecan Infinite M1000 or SPARK plate spectrofluorometer (Tecan).
(§3) The peptides were diluted 2-fold from 200 to 12.5 μM and incubated for 1 hour with 500 nM SpyCas9, gRNA prior to addition of 50 nM FRET DNA substrate for 1 hour. […] Data are the average ±SD of three replicate wells.
(§4) For the 11 original peptides reactions (10 μL) were set up in Cas9 reaction buffer [20 mM Tris-HCl, pH 7.5, 100 mM NaCl, 5 mM MgCl2, 0.1 mM EDTA] containing 50 nM annealed DNA substrate, 1.5 μM sgRNA, and 0.5 μM Cas9 in the wells of a black low volume 384-well plate. The reactions were incubated for 1 hour at ambient temperature with the indicated concentration of peptide; then, 10 μL, of 8 M Guanidine-HCl was added to quench the reaction. The plates were covered with an aluminum seal and incubated at 75° C. for 10 minutes and cooled down to RT before reading.
(§5) The % inhibition was determined by subtracting normalized relative fluorescent value to Cas9 without peptides (% activity) from 100% cleavage activity of CjeCas9, SauCas9, SpyCas9 by FRET assay. Data are the average ±SD of eleven replicate wells from three technical replicates at the indicated concentration of peptides.
(§6) FIGS. 12A, 12B, and 12C show graphs of measurements and fitted curves of concentration dependent inhibition of mutated peptides against Cas9 variants. The inhibition was measured as relative fluorescent value to Cas9 without peptides (% activity) of CjeCas9 (line with squares), SauCas9 (line with diamonds), SpyCas9 (line with triangles) by FRET assay with the indicated concentration of peptides and compared to original peptides (line with circles). Data are the average ±SD of eleven replicate wells from three technical replicates.

[2] = target: T2, SauCas9 (Staphylococcus aureus, UniProt J7RUA5); experiment: HT FRET-based Cas9 cleavage activity assay, SauCas9; type: biochemical, S. aureus
T2 construct: made in house; host or cells: E. coli BL21(star)DE3
Description: (§7) To evaluate the ability of identified peptides to inhibit other Cas9 variants, SauCas9 and CjeCas9 cleavage assays were used to quantitatively measure changes in activity. […] The inhibition was measured as relative fluorescent value to Cas9 without peptides (% activity) of CjeCas9 (Top), SauCas9 (middle), SpyCas9 (bottom) by FRET assay with the indicated concentration of peptides. Data are the average ±SD of eleven replicate wells from three technical replicates.
as §4, §5, §6

[3] = target: T3, CjeCas9 (Campylobacter jejuni subsp. jejuni serotype O:2, UniProt Q0P897); experiment: HT FRET-based Cas9 cleavage activity assay, CjeCas9; type: biochemical, C. jejuni
T3 construct: made in house; host or cells: E. coli BL21(star)DE3
Description: as §7, §4, §5, §6

[4] = target: T1, SpyCas9; experiment: Beacon DNA binding assay (Cas9 RNP binding to DNA substrate); set-up: species or system S. pyogenes; conditions: for binding of SpyCas9 RNP to DNA substrate (beacon fluorescence): peptide 40 μM, SpyCas9 500 nM, DNA substrate 50 nM
Description: To determine the mechanism of action of these peptide inhibitors, a binding assay was performed to determine if inhibitors are blocking Cas9 RNP binding to the DNA substrate. The beacon DNA binding assay was adapted and performed as described in Mekler V, Minakhin L, Semenova E, Kuznedelov K, Severinov K. 2016. Kinetics of the CRISPR-Cas9 effector complex assembly and the role of 3′-terminal segment of guide RNA. Nucleic Acids Res 44:2837-45. DNA probes were prepared from unmodified and chromophore-labeled DNA oligonucleotides synthesized by Integrated DNA Technologies. Equimolar amounts of synthetic complementary strands were mixed in a buffer containing 40 mM Tris, pH 7.9, 100 mM NaCl; heated for 2 min at 90° C. and slowly cooled to 20° C. The PAM-distal ends of the beacon target and non-target strands were labeled with fluorescein and Iowa Black® FQ, respectively. Both beacons mimic native target DNA and bind Cas9/sgRNA. The fluorescent signal is increased when Cas9 binds the DNA substrate and a helix forms with the target substrate strand and gRNA resulting in dissociation of oligo 3, leading to increase in fluorescent signal.
Data are the average ±SD of three replicate wells.

[5] = test system: SpyCas9; type: biochemical, S. pyogenes
Description: as §1, §2, §3, §4, §5, §6

[6] = target: T1, SpyCas9; type: cell-based, S. pyogenes; set-up: host or cells: protein RNP lipofected into A549 reporter cells; conditions: for reduction of SpyCas9 editing (relative % CRISPR editing): A549 GFP reporter cells, 500 ng plasmid 24 h before SpyCas9 RNP, compared to plasmid control; for cell toxicity: A549 reporter cells
From the text: The cell-based reporter assay was generated using an endonuclease surrogate reporter construct expressed in A549 cells. This construct was composed of genes encoding two fluorescent proteins (red fluorescent protein (RFP) and green fluorescent protein (GFP)) linked by the endonuclease targeting sequence. In the absence of endonuclease (e.g. Cas9) expression, the reporter was designed to express the RFP but not GFP as it is placed out of frame. Upon expression of Cas9 with a targeting gRNA, the RNP introduces a double stranded break at the target site upstream of the GFP genes leading to frameshift mutations and expression of GFP (FIG. 7). An AAVS1 protospacer and PAM sequence used for targeting by SpyCas9 RNP is in between the RFP and GFP genes. RNP targeting to the AASV1+PAM sequence in the cell's nucleus results in a DSB and error prone NHEJ will likely cause either of the GFP genes to now become in-frame and induce GFP expression. The expression of GFP is strictly dependent on the presence of nuclease activity from endonucleases that specifically recognizes the target sequence in the reporter construct. A549 reporter cells for SpyCas9 were reverse transfected with 100-500 ng of indicated plasmids using Lipofectamine, the plasmids were at a 1:1 ratio with SpyCas9 RNP. […] After 24 hours the media was changed, and 100-500 ng of SpyCas9 RNP was forward transfected using CRISPRMax (Thermo Fisher).
Editing was assessed at 48 hours and 72 hours post transfection using the CX7 plate imager and/or flow cytometry using an ACCURI C6 flow cytometer (BD BIOSCIENCES) with FCS EXPRESS SOFTWARE (DE NOVO SOFTWARE). Cells were counted as edited if their FL-1 fluorescence was greater than that of the no RNP control. […] Error bars represent ±SD across technical replicates (n=2).

T2 sequence (J7RUA5 whole entry): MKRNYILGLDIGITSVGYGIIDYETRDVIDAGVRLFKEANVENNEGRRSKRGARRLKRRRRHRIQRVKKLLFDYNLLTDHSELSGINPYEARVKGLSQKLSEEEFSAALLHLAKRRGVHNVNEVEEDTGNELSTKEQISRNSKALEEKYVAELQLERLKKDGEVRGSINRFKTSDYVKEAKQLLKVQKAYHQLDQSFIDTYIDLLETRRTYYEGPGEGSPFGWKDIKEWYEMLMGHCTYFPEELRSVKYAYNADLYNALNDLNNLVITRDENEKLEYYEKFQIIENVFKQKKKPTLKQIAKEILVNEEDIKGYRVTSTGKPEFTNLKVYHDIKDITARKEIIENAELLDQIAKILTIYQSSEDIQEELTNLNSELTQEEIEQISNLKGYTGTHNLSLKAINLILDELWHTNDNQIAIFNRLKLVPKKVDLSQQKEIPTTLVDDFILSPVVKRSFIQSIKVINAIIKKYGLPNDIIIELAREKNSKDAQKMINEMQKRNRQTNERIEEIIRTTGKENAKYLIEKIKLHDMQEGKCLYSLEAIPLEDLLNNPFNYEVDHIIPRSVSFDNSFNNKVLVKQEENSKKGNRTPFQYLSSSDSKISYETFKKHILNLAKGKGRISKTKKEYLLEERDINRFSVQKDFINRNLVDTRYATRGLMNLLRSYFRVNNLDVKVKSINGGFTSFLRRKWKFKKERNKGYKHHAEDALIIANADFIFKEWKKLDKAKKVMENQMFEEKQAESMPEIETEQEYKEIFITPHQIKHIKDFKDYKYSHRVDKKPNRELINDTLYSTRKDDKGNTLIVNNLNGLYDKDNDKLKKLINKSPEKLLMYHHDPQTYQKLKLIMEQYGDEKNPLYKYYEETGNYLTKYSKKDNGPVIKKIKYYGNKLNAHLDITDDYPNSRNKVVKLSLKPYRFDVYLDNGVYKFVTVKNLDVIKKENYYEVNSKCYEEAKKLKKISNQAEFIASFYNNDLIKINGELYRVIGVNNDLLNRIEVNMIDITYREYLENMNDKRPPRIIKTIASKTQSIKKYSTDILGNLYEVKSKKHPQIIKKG
T3 sequence (Q0P897 whole entry): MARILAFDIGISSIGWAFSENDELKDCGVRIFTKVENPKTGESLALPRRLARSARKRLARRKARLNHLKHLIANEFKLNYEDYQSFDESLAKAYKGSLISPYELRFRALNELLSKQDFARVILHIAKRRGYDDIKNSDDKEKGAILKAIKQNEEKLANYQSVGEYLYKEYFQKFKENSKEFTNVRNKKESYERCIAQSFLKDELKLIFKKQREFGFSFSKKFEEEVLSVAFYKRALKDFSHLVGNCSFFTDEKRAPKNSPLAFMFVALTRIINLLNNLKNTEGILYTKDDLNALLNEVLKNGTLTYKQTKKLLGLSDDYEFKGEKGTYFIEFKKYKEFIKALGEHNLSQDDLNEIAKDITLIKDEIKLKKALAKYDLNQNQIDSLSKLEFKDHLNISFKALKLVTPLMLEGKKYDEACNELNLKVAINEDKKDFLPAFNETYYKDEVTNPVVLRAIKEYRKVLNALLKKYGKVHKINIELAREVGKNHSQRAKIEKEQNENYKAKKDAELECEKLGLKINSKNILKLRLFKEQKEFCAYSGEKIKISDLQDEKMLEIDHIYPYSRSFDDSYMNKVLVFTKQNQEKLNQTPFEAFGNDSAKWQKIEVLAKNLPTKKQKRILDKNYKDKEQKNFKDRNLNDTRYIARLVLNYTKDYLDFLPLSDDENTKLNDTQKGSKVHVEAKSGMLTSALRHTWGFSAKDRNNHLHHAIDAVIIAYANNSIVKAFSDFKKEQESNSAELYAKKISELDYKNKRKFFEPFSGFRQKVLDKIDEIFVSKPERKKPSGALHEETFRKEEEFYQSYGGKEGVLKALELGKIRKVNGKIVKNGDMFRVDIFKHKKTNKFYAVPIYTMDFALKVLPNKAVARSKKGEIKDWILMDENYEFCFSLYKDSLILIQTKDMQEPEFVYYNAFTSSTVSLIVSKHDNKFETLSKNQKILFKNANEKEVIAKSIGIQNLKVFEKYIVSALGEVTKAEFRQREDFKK
T1 sequence (Q99ZW2 whole entry): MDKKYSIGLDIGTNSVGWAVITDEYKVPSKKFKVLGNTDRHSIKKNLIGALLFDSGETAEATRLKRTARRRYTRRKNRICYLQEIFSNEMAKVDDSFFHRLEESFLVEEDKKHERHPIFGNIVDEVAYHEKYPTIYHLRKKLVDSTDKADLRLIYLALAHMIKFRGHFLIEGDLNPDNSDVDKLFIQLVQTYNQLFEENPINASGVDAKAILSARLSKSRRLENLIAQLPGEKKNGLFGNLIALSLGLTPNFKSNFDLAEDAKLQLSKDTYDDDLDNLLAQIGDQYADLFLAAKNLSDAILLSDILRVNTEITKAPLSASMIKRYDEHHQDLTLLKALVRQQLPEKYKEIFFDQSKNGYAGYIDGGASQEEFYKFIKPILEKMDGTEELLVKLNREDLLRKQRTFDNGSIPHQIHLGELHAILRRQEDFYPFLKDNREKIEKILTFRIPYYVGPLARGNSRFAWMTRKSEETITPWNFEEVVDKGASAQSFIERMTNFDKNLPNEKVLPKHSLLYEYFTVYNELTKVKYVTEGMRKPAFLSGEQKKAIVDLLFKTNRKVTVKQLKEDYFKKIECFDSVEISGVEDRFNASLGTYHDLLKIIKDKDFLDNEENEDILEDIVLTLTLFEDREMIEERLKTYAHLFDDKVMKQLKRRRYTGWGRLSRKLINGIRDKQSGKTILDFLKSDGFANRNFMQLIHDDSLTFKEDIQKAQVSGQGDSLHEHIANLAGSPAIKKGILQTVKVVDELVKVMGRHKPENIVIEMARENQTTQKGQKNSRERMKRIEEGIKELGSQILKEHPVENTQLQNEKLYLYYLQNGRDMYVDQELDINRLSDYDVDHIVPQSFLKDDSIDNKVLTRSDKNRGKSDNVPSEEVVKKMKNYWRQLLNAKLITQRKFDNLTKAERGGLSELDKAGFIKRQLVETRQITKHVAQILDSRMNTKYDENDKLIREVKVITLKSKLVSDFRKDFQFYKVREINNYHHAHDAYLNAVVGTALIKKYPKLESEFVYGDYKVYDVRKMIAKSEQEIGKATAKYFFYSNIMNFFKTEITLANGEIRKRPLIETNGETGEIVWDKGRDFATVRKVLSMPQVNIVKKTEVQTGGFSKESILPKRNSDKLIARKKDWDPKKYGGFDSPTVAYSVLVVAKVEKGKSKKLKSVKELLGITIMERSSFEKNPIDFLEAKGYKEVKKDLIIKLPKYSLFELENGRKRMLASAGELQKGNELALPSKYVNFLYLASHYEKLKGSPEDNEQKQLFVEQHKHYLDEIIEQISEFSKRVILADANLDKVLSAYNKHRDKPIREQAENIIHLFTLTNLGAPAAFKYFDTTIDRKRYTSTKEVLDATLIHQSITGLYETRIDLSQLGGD

RRSHIAWLLAMSLTWYS [Peptide 99]
activity of SpyCas9 (% activity, FRET) ([1]; peptide 100 μM): significantly reduced activity | activity of SpyCas9 (% activity, FRET) ([1]; peptide 200 μM): significantly reduced activity | activity of SauCas9 (% activity, FRET) ([2]; peptide 100 μM): significantly reduced activity | activity of SauCas9 (% activity, FRET) ([2]; peptide 200 μM): significantly reduced activity | activity of CjeCas9 (% activity, FRET) ([3]; peptide 100 μM): significantly reduced activity | activity of CjeCas9 (% activity, FRET) ([3]; peptide 200 μM): significantly reduced activity | mechanism subset: blocks Cas9 RNP binding to target DNA or other mechanism [4]: block Cas9 RNP binding to the target DNA | binding of SpyCas9 RNP to DNA substrate (beacon fluorescence) [4]: significantly reduced; also recorded: reducing binding

KERRRSLMQLSVKSNSLFLGGT [Peptide 82]
mechanism subset: blocks Cas9 RNP binding to target DNA or other mechanism [4]: inhibit CACs9 RNP cleavage by another mechanism

NRSHKILLHYNGCHYRLFLRSL [Peptide 90-1-27]
IC50 [1]: 28.5 µM | activity against SpyCas9, SauCas9 and CjeCas9 (in words) [5]: particularly strong activity | IC50 [2]: 45 µM | IC50 [3]: 58.3 µM

LNVKIENAHLTTNLSTMPLVLC [Peptide 63-2-87]
IC50 [1]: > 200 µM | IC50 [2]: > 200 µM | IC50 [3]: 90.9 µM

RDPNSRRSHIARLLAMSLTWYS [Peptide 99-2-2]
IC50 [1]: 56.2 µM | IC50 [2]: 110 µM | IC50 [3]: > 200 µM

TESIRSYFAMTIRRNH [Peptide 80]
mechanism subset: blocks Cas9 RNP binding to target DNA or other mechanism [4]: block Cas9 RNP binding to the target DNA

KERHRSLMRTTVKYYSLCLGGT [Peptide 82-2-12]
IC50 [1]: 35.3 µM | IC50 [2]: 69 µM | IC50 [3]: 87.1 µM

PNVKIGKAHLTTIMSTMPLIIC [Peptide 63-2-27]
IC50 [1]: 81.6 µM | IC50 [2]: 95.3 µM | IC50 [3]: > 200 µM

GDPNSRRSHIARLLAMSLTWYS [Peptide 99-1-1]
IC50 [1]: 63.2 µM | IC50 [2]: 99.3 µM | IC50 [3]: 105 µM

VRVFSAYERLLIRRRRRRRRAG [Peptide 60-1-10]
IC50 [1]: 27.2 µM | activity against SpyCas9, SauCas9 and CjeCas9 (in words) [5]: particularly strong activity | IC50 [2]: 27.3 µM | IC50 [3]: 30.1 µM

CC[C@H](C)[C@H](NC(=O)[C@H](CCCNC(=N)N)NC(=O)[C@H](Cc1ccc(O)cc1)NC(=O)[C@H](Cc1ccc(O)cc1)NC(=O)[C@@H](N)CC(C)C)C(=O)N[C@@H](CCSC)C(=O)N[C@@H](CC(C)C)C(=O)N[C@@H](CO)C(=O)N[C@@H](CS)C(=O)N1CCC[C@H]1C(=O)N[C@@H](CCCCN)C(=O)N[C@@H](Cc1ccc(O)cc1)C(=O)N[C@@H](Cc1ccc(O)cc1)C(=O)N1CCC[C@H]1C(=O)N[C@@H](CS)C(=O)N[C@@H](CCC(=O)O)C(=O)N[C@@H](CC(C)C)C(=O)N[C@H](C(=O)NCC(=O)N[C@@H](Cc1c[nH]cn1)C(=O)N[C@H](C(=O)N[C@@H](CO)C(=O)O)[C@@H](C)O)C(C)C [Peptide 50] (H-LYYRIMLSCPKYYPCELVGHTS-OH)
IC50 [1]: 145 µM | reduction of SpyCas9 editing (relative % CRISPR editing) [6]: 30±1.4% | cell toxicity [6]: without cell toxicity

KERRRSMMQLSVKSYTLFLGGT [Peptide 82-2-21]
IC50 [1]: 31.8 µM | activity against SpyCas9, SauCas9 and CjeCas9 (in words) [5]: particularly strong activity | IC50 [2]: 40.9 µM | IC50 [3]: 51.8 µM

DRSQKIFLRYNRCRYRLLQRGL [Peptide 90-1-18]
IC50 [1]: 48.4 µM | IC50 [2]: 58.4 µM | IC50 [3]: 73.6 µM

RERRRSLIQISVKSYPLFLGGT [Peptide 82-2-28]
IC50 [1]: 72.5 µM | IC50 [2]: 153 µM | IC50 [3]: > 200 µM

VSAYSADESLLIRRRRRRRRAG [Peptide 60-1-56]
IC50 [1]: 44.6 µM | IC50 [2]: 62.9 µM | IC50 [3]: 69.2 µM

RLYHQCFLACLIDRQSPRNV [Peptide 73]
mechanism subset: blocks Cas9 RNP binding to target DNA or other mechanism [4]: block Cas9 RNP binding to the target DNA | binding of SpyCas9 RNP to DNA substrate (beacon fluorescence) [4]: unaltered; also recorded: did not reduce substrate binding

LRQISNTSIVMGTTPSSVAVCG [Peptide 61]
mechanism subset: blocks Cas9 RNP binding to target DNA or other mechanism [4]: inhibit CACs9 RNP cleavage by another mechanism

DRSHKILLRYNGCHYRLLQRSL [Peptide 90]
IC50 [1]: 114 µM | reduction of SpyCas9 editing (relative % CRISPR editing) [6]: 35±2.1% | cell toxicity [6]: without cell toxicity

DRSHKILLRHSGCLYRFLQRYL [Peptide 90-2-5]
IC50 [1]: 86.5 µM | IC50 [2]: 91.3 µM | IC50 [3]: > 200 µM

DGSLKILLRYNGCHYRLLQRSL [Peptide 90-3-50]
IC50 [1]: 65.5 µM | IC50 [2]: > 200 µM | IC50 [3]: > 200 µM

LNVKIGNAHLTTIMSTMPLVLC [Peptide 63]
mechanism subset: blocks Cas9 RNP binding to target DNA or other mechanism [4]: inhibit CACs9 RNP cleavage by another mechanism

DRSHKILLCYNGRNKRLLLRRL [Peptide 90-2-18]
IC50 [1]: 47.2 µM | IC50 [2]: 68.2 µM | IC50 [3]: 74.9 µM

IAGFRREWFNQNTYFENWHADR [Peptide 15]
reduction of SpyCas9 editing (relative % CRISPR editing) [6]: 21±4.2% | cell toxicity [6]: without cell toxicity

VCAFSADESLLIRRRHQRRRAG [Peptide 60]
IC50 [1]: 92.2 µM | reduction of SpyCas9 editing (relative % CRISPR editing) [6]: 30±2.3% | cell toxicity [6]: without cell toxicity
